IC50 data for 16 compounds are collected here from patent US11285156B2, “Substituted piperazines as KRAS G12C inhibitors” (Amgen Inc., priority 2018, dated 2022).

The target of assay [1] is GDP-bound KRAS protein (aa 1-169), containing both G12C and C118A amino acid substitutions (Homo sapiens (Human), UniProt P01116, C118A/G12C). Kind of assay: Coupled nucleotide exchange assay (SOS-mediated nucleotide exchange, AlphaScreen). In kind it is biochemical. The note with it: read-out: Coupled exchange IC50 (5 min; μM); 5 min compound pre-incubation. For orientation: Alpha assays give light when donor and acceptor beads are brought close together.

Assay [2] concerns Phosphorylation of ERK1/2 in MIA PaCa-2 cells. Kind of assay: Phospho-ERK1/2 MSD assay in MIA PaCa-2 cells. It is filed as cell-based. To be noted: Homo sapiens, MIA PaCa-2, 2 h, read-out: p-ERK IC50 (2 h, MiaPaCa-2; μM), 2 h compound treatment, MIA PaCa-2 cells, EGF stimulated. In outline:
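Phospho-ERK1/2 measured by MSD electrochemiluminescence kit in RIPA lysates of MIA PaCa-2 cells. Cells were treated with compound titrations for 2 or 4 h at 37 °C, 5% CO2, followed by a 10 min pulse of 10 ng/mL EGF.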

The test system of assay [3] is Phosphorylation of ERK1/2 in A549 cells. Description: Phospho-ERK1/2 MSD assay in A549 cells. In kind it is cell-based. The note with it: Homo sapiens, A549, 2 h, read-out: p-ERK IC50 (2 h, A549; μM), 2 h compound treatment, A549 cells, EGF stimulated. The procedure, abridged:
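MSD electrochemiluminescent read-out of phospho-ERK1/2 in RIPA lysates. Cells in RPMI 1640 with 10% FBS received titrated compound for 2 or 4 h, then 10 ng/mL EGF for 10 min before ice-cold PBS wash and lysis.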

For orientation: IC50 means the midpoint of a concentration-inhibition curve.

GDP-bound KRAS protein (aa 1-169), containing both G12C and C118A amino acid substitutions, sequence (P01116 other isoform, or with tags, fused parts or gaps G12C/C118A): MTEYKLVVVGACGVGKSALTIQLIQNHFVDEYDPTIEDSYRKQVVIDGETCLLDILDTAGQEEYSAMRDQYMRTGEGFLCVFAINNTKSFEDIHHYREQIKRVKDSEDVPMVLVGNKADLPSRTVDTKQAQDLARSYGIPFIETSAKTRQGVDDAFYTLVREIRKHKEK

As to `C=CC(=O)N1C[C@H](C)N(c2nc(=O)n(-c3c(C)ccnc3C(C)C)c3nc(-c4ccccc4C(=O)N(C)C)c(Cl)cc23)C[C@H]1C` (atropisomer, axis not shown; (M)) [Example 92-28, (M)-2-[6-Chloro-4-[(2S,5R)-2,5-dimethyl-4-prop-2-enoyl-piperazin-1-yl]-1-(2-isopropyl-4-methyl-3-pyridyl)-2-oxo-pyrido[2,3-d]pyrimidin-7-yl]-N,N-dimethyl-benzamide], the IC50 was 0.123 µM in assay [1], 0.11 µM in assay [2] and above 7.5 µM in assay [3].

With `C=CC(=O)N1C[C@H](C)N(c2nc(=O)n(-c3c(C)ccnc3C(C)C)c3nc(-c4ccccc4C(=O)O)c(Cl)cc23)C[C@H]1C` (atropisomer, axis not shown; (M)) [Example 92-29, (M)-2-[6-Chloro-4-[(2S,5R)-2,5-dimethyl-4-prop-2-enoyl-piperazin-1-yl]-1-(2-isopropyl-4-methyl-3-pyridyl)-2-oxo-pyrido[2,3-d]pyrimidin-7-yl]benzoic acid], the IC50 in assay [1] was 0.139 µM; in assay [2] it was 10 µM; in assay [3], above 7.5 µM.

Regarding `C=CC(=O)N1C[C@H](C)N(c2nc(=O)n(-c3c(C)ccnc3C(C)C)c3nc(-c4cc(F)c(F)cc4N)c(Cl)cc23)C[C@H]1C` (atropisomer, axis not shown; (M)) [Example 92-31, (M)-7-(2-Amino-4,5-difluoro-phenyl)-6-chloro-4-[(2S,5R)-2,5-dimethyl-4-prop-2-enoyl-piperazin-1-yl]-1-(2-isopropyl-4-methyl-3-pyridyl)pyrido [2,3-d]pyrimidin-2-one], the IC50 is 0.014 µM in assay [1], 0.022 µM in assay [2] and above 7.5 µM in assay [3].

As to `C=CC(=O)N1C[C@H](C)N(c2nc(=O)n(-c3c(C)ccnc3C(C)C)c3nc(-c4ccccc4NS(C)(=O)=O)c(Cl)cc23)C[C@H]1C` (atropisomer, axis not shown; (M)) [Example 92-32, (M)-N-[2-[6-Chloro-4-[(2S,5R)-2,5-dimethyl-4-prop-2-enoyl-piperazin-1-yl]-1-(2-isopropyl-4-methyl-3-pyridyl)-2-oxo-pyrido[2,3-d]pyrimidin-7-yl]phenyl] methanesul-fonamide], the IC50 in assay [1] was 0.075 µM; in assay [2], 0.129 µM; in assay [3] it was above 7.5 µM.

`C=CC(=O)N1C[C@H](C)N(c2nc(=O)n(-c3c(C)ccnc3C(C)C)c3nc(-c4ccccc4S(N)(=O)=O)c(Cl)cc23)C[C@H]1C` (atropisomer, axis not shown; (M)) [Example 92-33, (M)-2-[6-Chloro-4-[(2S,5R)-2,5-dimethyl-4-prop-2-enoyl-piperazin-1-yl]-1-(2-isopropyl-4-methyl-3-pyridyl)-2-oxo-pyrido[2,3-d]pyrimidin-7-yl] benzenesul-fonamide]: the concentration for half-maximal inhibition (IC50) in assay [1] is 0.113 µM; in assay [2] it was 0.216 µM; in assay [3], above 7.5 µM.

Consider `C=CC(=O)N1C[C@H](C)N(c2nc(=O)n(-c3c(C)ccnc3C(C)C)c3nc(-c4cc(O)ccc4F)c(Cl)cc23)C[C@H]1C` (atropisomer, axis not shown; (M)) [Example 92-34, (M)-6-Chloro-4-[(2S,5R)-2,5-dimethyl-4-prop-2-enoyl-piperazin-1-yl]-7-(2-fluoro-5-hydroxy-phenyl)-1-(2-isopropyl-4-methyl-3-pyridyl)pyrido [2,3-d]pyrimidin-2-one], for which the IC50 in assay [1] was 0.054 µM; in assay [2] it was 0.06 µM; in assay [3], above 7.5 µM.

Consider `C=CC(=O)N1C[C@H](C)N(c2nc(=O)n(-c3c(C)ccnc3C(C)C)c3nc(-c4ccccc4[N+](=O)[O-])c(Cl)cc23)C[C@H]1C` (atropisomer, axis not shown; (M)) [Example 92-36, (M)-6-Chloro-4-[(2S,5R)-2,5-dimethyl-4-prop-2-enoyl-piperazin-1-yl]-1-(2-isopropyl-4-methyl-3-pyridyl)-7-(2-nitrophenyl) pyrido[2,3-d]pyrimidin-2-one], for which the IC50 was determined as 0.275 µM in assay [1], 0.133 µM in assay [2] and 1.87 µM in assay [3].

As for `C=CC(=O)N1C[C@H](C)N(c2nc(=O)n(-c3c(C)ccnc3C(C)C)c3nc(-c4cc(Br)ccc4F)c(Cl)cc23)C[C@H]1C` (atropisomer, axis not shown; (M)) [Example 92-37, (M)-7-(5-Bromo-2-fluoro-phenyl)-6-chloro-4-[(2S,5R)-2,5-dimethyl-4-prop-2-enoyl-piperazin-1-yl]-1-(2-isopropyl-4-methyl-3-pyridyl)pyrido [2,3-d]pyrimidin-2-one], the IC50 in assay [1] is 0.048 µM; in assay [2], 0.06 µM; in assay [3], above 7.5 µM.

`C=CC(=O)N1C[C@H](C)N(c2nc(=O)n(-c3c(C)ccnc3C(C)C)c3nc(-c4cc(C#CC)ccc4F)c(Cl)cc23)C[C@H]1C` (atropisomer, axis not shown; (M)) [Example 92-39, (M)-6-Chloro-4-[(2S,5R)-2,5-dimethyl-4-prop-2-enoyl-piperazin-1-yl]-7-(2-fluoro-5-prop-1-ynyl-phenyl)-1-(2-isopropyl-4-methyl-3-pyridyl)pyrido [2,3-d]pyrimidin-2-one]: the IC50 in assay [1] is 0.032 µM; in assay [2], 0.145 µM; in assay [3], above 7.5 µM.

As to `C=CC(=O)N1C[C@H](C)N(c2nc(=O)n(-c3c(C)ccnc3C(C)C)c3nc(-c4c(F)cccc4C#N)c(Cl)cc23)C[C@H]1C` (atropisomer, axis not shown; (M)) [Example 92-40, (M)-2-[6-Chloro-4-[(2S,5R)-2,5-dimethyl-4-prop-2-enoyl-piperazin-1-yl]-1-(2-isopropyl-4-methyl-3-pyridyl)-2-oxo-pyrido[2,3-d]pyrimidin-7-yl]-3-fluoro-benzonitrile], the values for the IC50 in assay [1], in assay [2] and in assay [3] were 0.244 µM, 0.14 µM and above 7.5 µM, respectively.

In the case of `C=CC(=O)N1C[C@H](C)N(c2nc(=O)n(-c3c(C)ccnc3C(C)C)c3nc(-c4ccccc4C(C)=O)c(Cl)cc23)C[C@H]1C` (atropisomer, axis not shown; (M)) [Example 92-41, (M)-7-(2-Acetylphenyl)-6-chloro-4-[(2S,5R)-2,5-dimethyl-4-prop-2-enoyl-piperazin-1-yl]-1-(2-isopropyl-4-methyl-3-pyridyl)pyrido [2,3-d]pyrimidin-2-one], the values for the IC50 in assay [1], in assay [2] and in assay [3] were 0.117 µM, 0.075 µM and 3.75 µM, respectively.

Consider `C=CC(=O)N1C[C@H](C)N(c2nc(=O)n(-c3c(C)ccnc3C(C)C)c3nc(-c4ccccc4)c(Cl)cc23)C[C@H]1C` (atropisomer, axis not shown; (M)) [Example 92-42, (M)-6-Chloro-4-[(2S,5R)-2,5-dimethyl-4-prop-2-enoyl-piperazin-1-yl]-1-(2-isopropyl-4-methyl-3-pyridyl)-7-phenyl-pyrido[2,3-d]pyrimidin-2-one], for which the concentration for half-maximal inhibition (IC50) in assay [1] was 0.117 µM; in assay [2], 0.08 µM; in assay [3], above 7.5 µM.

As for `C=CC(=O)N1C[C@H](C)N(c2nc(=O)n(-c3c(C)ccnc3C(C)C)c3nc(-c4cc(Cl)ccc4F)c(Cl)cc23)C[C@H]1C` (atropisomer, axis not shown; (M)) [Example 92-44, (M)-6-Chloro-7-(5-chloro-2-fluoro-phenyl)-4-[(2S,5R)-2,5-dimethyl-4-prop-2-enoyl-piperazin-1-yl]-1-(2-isopropyl-4-methyl-3-pyridyl)pyrido [2,3-d]pyrimidin-2-one], the IC50 in assay [1] was 0.04 µM; in assay [2], 0.098 µM; in assay [3], above 7.5 µM.

In the case of `C=CC(=O)N1C[C@H](C)N(c2nc(=O)n(-c3c(C)ccnc3C(C)C)c3nc(-c4ccccc4C)c(Cl)cc23)C[C@H]1C` (atropisomer, axis not shown; (M)) [Example 92-45, (M)-6-Chloro-4-[(2S,5R)-2,5-dimethyl-4-prop-2-enoyl-piperazin-1-yl]-1-(2-isopropyl-4-methyl-3-pyridyl)-7-(o-tolyl)pyrido[2,3-d]pyrimidin-2-one], the IC50 was 0.025 µM in assay [1], 0.023 µM in assay [2] and above 7.5 µM in assay [3].

As for `C=CC(=O)N1C[C@H](C)N(c2nc(=O)n(-c3c(C)ccnc3C(C)C)c3nc(-c4cccc(Cl)c4F)c(Cl)cc23)C[C@H]1C` (atropisomer, axis not shown; (M)) [Example 92-46, (M)-6-Chloro-7-(3-chloro-2-fluoro-phenyl)-4-[(2S,5R)-2,5-dimethyl-4-prop-2-enoyl-piperazin-1-yl]-1-(2-isopropyl-4-methyl-3-pyridyl)pyrido [2,3-d]pyrimidin-2-one], the IC50 in assay [1] is 0.023 µM; in assay [2], 0.032 µM; in assay [3], above 7.5 µM.

In the case of `C#Cc1ccccc1-c1nc2c(cc1Cl)c(N1C[C@@H](C)N(C(=O)C=C)C[C@@H]1C)nc(=O)n2-c1c(C)ccnc1C(C)C` (atropisomer, axis not shown; (M)) [Example 92-47, (M)-6-Chloro-4-[(2S,5R)-2,5-dimethyl-4-prop-2-enoyl-piperazin-1-yl]-7-(2-ethynylphenyl)-1-(2-isopropyl-4-methyl-3-pyridyl)pyrido [2,3-d]pyrimidin-2-one], the half-inhibitory concentration (IC50) is 0.057 µM in assay [1], 0.049 µM in assay [2] and above 7.5 µM in assay [3].
